These results are taken from patent US11780839B2, “Compounds for treating Huntington's disease” (PTC THERAPEUTICS, INC., priority 2018, dated 2023).

As usually defined, the IC50 is the concentration that inhibits the measured activity by half. Read a high IC50 as a need for much substance.

The assay concerns Endogenous Huntingtin Protein. As to the kind of experiment: Endogenous Huntingtin Protein Assay (ELISA-based Meso Scale Discovery electrochemiluminescence). In kind it is cell-based. The settings on record: MSD electrochemiluminescence, Table 1. The method in brief:
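Huntingtin was captured overnight at 4 °C on plates coated with 1 μg/mL MW1 (polyQ-expanded) or MAB2166 antibody and BSA-blocked. Detection used a rabbit monoclonal and then a SULFO-TAG goat anti-rabbit antibody (0.25 μg/mL, 1 h each, room temperature). Signal was read by electrochemiluminescence.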
With `Cn1cc(-c2ccc(-c3cnc(N4CC[C@H](NC5CCC5)C4)nn3)c(O)c2)cn1` [Cpd 407, 2-{3-[(3S)-3-(cyclobutylamino)pyrrolidin-1-yl]-1,2,4-triazin-6-yl}-5-(1-methyl-1H-pyrazol-4-yl)phenol], the half-inhibitory concentration (IC50) is no more than 100 nM.
For `CC(C)NC1(C)CCN(c2ncc(-c3ccc(-c4cnn(C)c4)cc3O)nn2)C1` (centres unmarked) [Cpd 422] the value was no more than 100 nM; for `Cc1cnn(-c2ccc(-c3cnc(N(C)C4CC(C)(C)NC(C)(C)C4)nn3)c(O)c2)c1` [Cpd 94, 5-(4-methyl-1H-pyrazol-1-yl)-2-{3-[methyl(2,2,6,6-tetramethylpiperidin-4-yl)amino]-1,2,4-triazin-6-yl}phenol], 100 to 500 nM.
The same measure for `Oc1cc(-c2cn[nH]c2)ccc1-c1cnc(N2CC3(CCCNC3)C2)nn1` [Cpd 109, 2-[3-(2,6-diazaspiro[3.5]nonan-2-yl)-1,2,4-triazin-6-yl]-5-(1H-pyrazol-4-yl)phenol]: 100 to 500 nM.
Turning to `COc1cc(-c2ccc(-c3cnc(N[C@H]4CC(C)(C)NC(C)(C)[C@H]4F)nn3)c(O)c2)ncn1` [Cpd 290, 2-(3-{[(3S,4S)-3-fluoro-2,2,6,6-tetramethylpiperidin-4-yl]amino}-1,2,4-triazin-6-yl)-5-(6-methoxypyrimidin-4-yl)phenol], the IC50 is no more than 100 nM.
`CNC1CCN(c2ncc(-c3ccc(-c4nnn(C)n4)cc3O)nn2)C1` (centres unmarked) [Cpd 320, 2-{3-[3-(methylamino)pyrrolidin-1-yl]-1,2,4-triazin-6-yl}-5-(2-methyl-2H-tetrazol-5-yl)phenol] came in with an IC50 of 100 to 500 nM.
`CC1(C)CC(Nc2cnc(-c3ccc(-n4nccn4)cc3O)nn2)CC(C)(C)N1` [Cpd 401, 2-{6-[(2,2,6,6-tetramethylpiperidin-4-yl)amino]-1,2,4-triazin-3-yl}-5-(2H-1,2,3-triazol-2-yl)phenol] returned an IC50 of no more than 100 nM.
For `Cn1cc(-c2ccc(-c3cnc(N[C@H]4CC(C)(C)NC(C)(C)[C@H]4F)nn3)c(O)c2)cn1` [Cpd 201, 2-(3-{[(3S,4S)-3-fluoro-2,2,6,6-tetramethylpiperidin-4-yl]amino}-1,2,4-triazin-6-yl)-5-(1-methyl-1H-pyrazol-4-yl)phenol], the IC50 was no more than 100 nM.
For `CN(c1ncc(-c2ccc(-c3cc(F)ccn3)cc2O)nn1)C1CC(C)(C)NC(C)(C)C1` [Cpd 98, 5-(4-fluoropyridin-2-yl)-2-{3-[methyl(2,2,6,6-tetramethylpiperidin-4-yl)amino]-1,2,4-triazin-6-yl}phenol] the value was 100 to 500 nM; for `CC1(C)C[C@@H](Nc2ncc(-c3ccc(-c4cn[nH]c4)cc3O)nn2)[C@@H](F)C(C)(C)N1` [Cpd 323, 2-(3-{[(3R,4R)-3-fluoro-2,2,6,6-tetramethylpiperidin-4-yl]amino}-1,2,4-triazin-6-yl)-5-(1H-pyrazol-4-yl)phenol], no more than 100 nM; for `Cn1nnc(-c2ccc(-c3cnc(N[C@H]4CC(C)(C)NC(C)(C)[C@H]4F)nn3)c(O)c2)n1` [Cpd 291, 2-(3-{[(3S,4S)-3-fluoro-2,2,6,6-tetramethylpiperidin-4-yl]amino}-1,2,4-triazin-6-yl)-5-(2-methyl-2H-tetrazol-5-yl)phenol], no more than 100 nM.
The same measure for `CNC1CCN(c2ncc(-c3ccc(-c4cnc5c(cnn5C)c4)cc3O)nn2)C1` (centres unmarked) [Cpd 271, 2-{3-[3-(methylamino)pyrrolidin-1-yl]-1,2,4-triazin-6-yl}-5-(1-methyl-1H-pyrazolo[3,4-b]pyridin-5-yl)phenol]: 100 to 500 nM.
For `Cc1csc(-c2ccc(-c3cnc(N(C)C4CC(C)(C)NC(C)(C)C4)nn3)c(O)c2)c1` [Cpd 54, 2-{3-[methyl(2,2,6,6-tetramethylpiperidin-4-yl)amino]-1,2,4-triazin-6-yl}-5-(4-methylthiophen-2-yl)phenol] the value was greater than 500 nM; for `CC(C)(C)NC1CCN(c2ncc(-c3ccc(-c4c[nH]nc4Cl)cc3O)nn2)C1` (stereo not drawn) [Cpd 365, 2-{3-[3-(tert-butylamino)pyrrolidin-l-yl]-1,2,4-triazin-6-yl}-5-(3-chloro-1H-pyrazol-4-yl)phenol], no more than 100 nM; for `CC1(C)CC(Nc2ncc(-c3ccc(-n4nccn4)cc3O)nn2)C(F)C(C)(C)N1` (centres unmarked) [Cpd 324, 2-{3-[(3-fluoro-2,2,6,6-tetramethylpiperidin-4-yl)amino]-1,2,4-triazin-6-yl}-5-(2H-1,2,3-triazol-2-yl)phenol], no more than 100 nM.
The compound `CNC1CCN(c2ncc(-c3ccc(-c4cc(OC)ncn4)cc3O)nn2)C1` (centres unmarked) [Cpd 268, 5-(6-methoxypyrimidin-4-yl)-2-{3-[(methylamino)pyrrolidin-1-yl]-1,2,4-triazin-6-yl}phenol] gave an IC50 of no more than 100 nM.
For the compound `Cc1cn(-c2ccc(-c3cnc(N4CC5(CCN(C)CC5)C4)nn3)c(O)c2)cn1` [Cpd 228, 2-[3-(7-methyl-2,7-diazaspiro[3.5]nonan-2-yl)-1,2,4-triazin-6-yl]-5-(4-methyl-1H-imidazol-1-yl)phenol], the IC50 is no more than 100 nM.
For `CC1(C)CC(Nc2ncc(-c3ccc(-c4c[nH]nc4F)cc3O)nn2)CC(C)(C)N1` [Cpd 73, 5-(3-fluoro-1H-pyrazol-4-yl)-2-{3-[(2,2,6,6-tetramethylpiperidin-4-yl)amino]-1,2,4-triazin-6-yl}phenol] the value was no more than 100 nM; for `Cc1nc2c(C)cc(-c3ccc(-c4cnc(N(C)C5CC(C)(C)NC(C)(C)C5)nn4)c(O)c3)nc2o1` [Cpd 169, 5-(2,7-dimethyl[1,3]oxazolo[5,4-b]pyridin-5-yl)-2-{3-[methyl(2,2,6,6-tetramethylpiperidin-4-yl)amino]-1,2,4-triazin-6-yl}phenol], no more than 100 nM; for `CNC1CCN(c2ncc(-c3ccc(-c4ccn(C)n4)cc3O)nn2)C1` (centres unmarked) [Cpd 296, 2-{3-[3-(methylamino)pyrrolidin-1-yl]-1,2,4-triazin-6-yl}-5-(1-methyl-1H-pyrazol-3-yl)phenol], 1000 to 3000 nM.
The same measure for `CN(c1ncc(-c2ccc(-c3cnn(C)c3)cc2O)nn1)C1CC(C)(C)NC(C)(C)C1` [Cpd 16]: no more than 100 nM; for `CN(c1ncc(-c2ccc(-c3ccc4[nH]ncc4c3)cc2O)nn1)C1CC(C)(C)NC(C)(C)C1` [Cpd 97, 5-(1H-indazol-5-yl)-2-{3-[methyl(2,2,6,6-tetramethylpiperidin-4-yl)amino]-1,2,4-triazin-6-yl}phenol]: no more than 100 nM; for `CN1CCC2(CC1)CN(c1ncc(-c3ccc(-c4ncns4)cc3O)nn1)C2` [Cpd 272, 2-[3-(7-methyl-2,7-diazaspiro[3.5]nonan-2-yl)-1,2,4-triazin-6-yl]-5-(1,2,4-thiadiazol-5-yl)phenol]: 100 to 500 nM.
For `CN(c1ncc(-c2ccc(-c3c[nH]nn3)cc2O)nn1)C1CC(C)(C)NC(C)(C)C1` [Cpd 4, 2-{3-[methyl(2,2,6,6-tetramethylpiperidin-4-yl)amino]-1,2,4-triazin-6-yl}-5-(1H-1,2,3-triazol-4-yl)phenol] the value was no more than 100 nM.
Compound `Cc1cn(-c2ccc(-c3cnc(N4CCC(NC(C)C)C4)nn3)c(O)c2)cn1` (centres unmarked) [Cpd 326, 5-(4-methyl-1H-imidazol-1-yl)-2-(3-{3-[(propan-2-yl)amino]pyrrolidin-1-yl}-1,2,4-triazin-6-yl)phenol] registered an IC50 of no more than 100 nM.
For `CN(c1ncc(-c2ccc(-n3cc(C#N)cn3)cc2O)nn1)C1CC(C)(C)NC(C)(C)C1` [Cpd 135, 1-(3-hydroxy-4-{3-[methyl(2,2,6,6-tetramethylpiperidin-4-yl)amino]-1,2,4-triazin-6-yl}phenyl)-1H-pyrazole-4-carbonitrile] the value was 100 to 500 nM.
